Measured values taken from US20080269202A1, “Novel 2,3-benzodiazepine derivatives and their use as antipsychotic agents” (Teva Pharmaceutical Industries Ltd., priority 2007, published 2008).

Tests used:
PCP-induced locomotion = experiment: PCP induced locomotor activity test (open field); type: in vivo, mice; settings: all doses (1, 3, 6, 10, 15 mg/kg) by gavage, PCP 5 mg/kg, vs vehicle
Experimental: The effects of compounds 121 and 183, administered orally, were also evaluated in the PCP induced locomotor activity test. Compound 121 was designated as “Compound A” and Compound 183 was designated as “Compound B” for purposes of this study. In general, the study aimed to test Compounds A and B for potential antipsychotic activity in PCP treated mice.
Compounds A & B were dissolved in 3% Tween: Compound A: 1, 3, 6, 10, and 15 mg/kg; Compound B: 3, 7, 14, 28, and 40 mg/kg; Compounds A+B were administered by gavage.
PCP (5 mg/kg) was dissolved in sterile injectable water.
The open field (“OF”) test assessed both anxiety and locomotor behavior. The open field chambers are Plexiglas square chambers (27.3×27.3×20.3 cm; Med Associates Inc., St Albans, Vt.) surrounded by infrared photobeams (16×16×16) to measure horizontal and vertical activity. The analysis was configured to divide the open field into a center and periphery zone. Distance traveled was measured from horizontal beam breaks as the mouse moved whereas rearing activity was measured from vertical beam breaks.
Mice were brought to the activity experimental room for at least 1 hr acclimation to the experimental room conditions prior to testing. […]
Data was analyzed to show baseline activity (activity during the 30 min prior to PCP injection) and PCP-induced activity (activity during the 60 min after PCP injection).

[1] = system: DOPA accumulation in eminentia mediana; experiment: DOPA accumulation in eminentia mediana after NSD-1015; type: in vivo, Sprague-Dawley rats
Experimental: Acute administration of atypical antipsychotics results in enhanced accumulation of dihydroxyphenylalanine (DOPA) in the […] after the inhibition of DOPA decarboxylase. In contrast, DOPA accumulation is not altered by the typical antipsychotics (Andersson, G, Albinsson, A, Pettersson, G, Arzneimittelforschung. 1990, 40, 237; Gudelsky, G. A., Meltzer, H. Y. Neuropsychopharmacology, 1989, 2, 45). The effect of the compound of Example 121 on DOPA-accumulation was measured by analyzing the levels of DOPA in […]. […] (EM), were dissected out from the brains on ice-cold plates and kept at -70° C. until they were assayed for DOPA by HPL-EC. Statistical analysis was carried out using one-way ANOVA followed by Duncan test.

[2] = system: PCP-induced disruption of PPI; experiment: PCP-induced disruption of pre-pulse inhibition (PPI)
From the text: Male C57B1/6J mice from Jackson Laboratories (Bar Harbor, Me.) were used in this study. Mice were received at 6-weeks of age. Upon receipt, mice were assigned unique identification numbers (tail marked) and were group housed in OPTImice cages. All animals remained housed in groups of four during the remainder of the study. […] During the period of acclimation, mice were examined on a regular basis, handled, and weighed to assure adequate health and suitability. Mice were maintained on a 12/12 light/dark cycle with the light on at 6:00 a.m. The room temperature was maintained between 20 and 23° C. with a relative humidity maintained between 30% and 70%. Food and water were provided ad libitum for the duration of the study. In each test, animals were randomly assigned across treatment groups.
All compounds were injected i.p. at a dose volume of 10 ml/kg. […] Phenylcyclohexylpiperidine (PCP) (8 mg/kg) was dissolved in sterile water.
The acoustic startle measured an unconditioned reflex response to external auditory stimulation. […] Mice were placed in the PPI chambers (Med Associates) for a 5 min session of white noise (70 dB) habituation.
After the acclimation period the test session was automatically started. The session started with a habituation block of 6 presentations of the startle stimulus alone, followed by 10 PPI blocks of 6 different types of trials. Trial types are: null (no stimuli), startle (120 dB), startle plus prepulse (4, 8 and 12 dB over background noise i.e. 74, 78 or 82 dB) and prepulse alone (82 dB). Trial types were presented at random within each block.
Each trial started with a 50 ms null period during which baseline movements were recorded. There was a subsequent 20 ms period during which prepulse stimuli were presented and responses to the prepulse measured. After further 100 ms the startle stimuli were presented for 40 ms and responses recorded for 100 ms from startle onset. Responses were sampled every ms. The inter-trial interval was variable with an average of 15 s (range from 10 to 20 s). In startle alone trials the basic auditory startle was measured and in prepulse plus startle trials the amount of inhibition of the normal startle was determined and expressed as a percentage of the basic startle response (from startle alone trials), excluding the startle response of the first habituation block.
Data were analyzed by analysis of variance (ANOVA) followed by post-hoc comparisons with Fisher Tests when appropriate. An effect was considered significant if p<0.05. Data are represented as the mean and standard error to the mean.

Compound: CNC(=O)N1N=C(c2ccc(N)cc2)c2cc(OC)c(OC)cc2C[C@H]1C [Example 121]
- effect on PCP induced locomotion (PCP-induced locomotion): significantly decreased
- DOPA levels (pg/tissue block) ([1]; rat eminentia mediana, 10 mg/kg ip, mean ± SEM): 484 ± 34 pg/tissue block
- DOPA levels (pg/tissue block) ([1]; rat eminentia mediana, 20 mg/kg ip, mean ± SEM): 652 ± 69 pg/tissue block
- DOPA levels (pmol/mg prot) ([1]; rat eminentia mediana, 40 mg/kg ip, mean ± SEM): 94.0 ± 11.4 pmol/mg prot
- effect on levels of DOPA in the EM of rats ([1]; result in words, vs saline): significantly increased
- sedation and lethargy in the mice ([2]; 5 mg/kg i.p. (high dose)): caused sedation and lethargy
- reversal of PCP-induced disruption of PPI ([2]; 2.5 and 5 mg/kg i.p., PCP 8 mg/kg, C57B1/6J mice): significantly reversed
